Values of other authors in patent publication US20230149410A1, “TREATMENT OF CONDITIONS ASSOCIATED WITH THYROID HORMONE” (priority 2020, published 2023).
Like-named read-outs stand apart in the source and are kept apart here.

Settings: profound hypothyroidism after birth, treated immediately after birth

N[C@@H](Cc1cc(I)c(Oc2cc(I)c(O)c(I)c2)c(I)c1)C(=O)O [levothyroxine]
thyroid status by thyroid hormone testing in plasma or serum (blood): rendered chemically euthyroid
thyroid status by thyroid hormone testing in plasma or serum (blood) (listed as T4): became chemically euthyroid
